Holding throughout (assay): biochemical
Test [1] concerns the target T1, serotonin transporter (SERT) (Rattus norvegicus, UniProt P31652).
T1 construct: brains were processed to yield synaptosomes as previously described; from tissue; host or cells: rat whole brain minus caudate and cerebellum, synaptosomes

Test [2] has as its target T2, dopamine transporter (DAT) (Rattus norvegicus, UniProt P23977).
T2 construct: brains were processed to yield synaptosomes as previously described; from tissue; host or cells: rat caudate synaptosomes

Test [3] has as its target T3, norepinephrine transporter (NET) (Rattus norvegicus, UniProt Q63380).
T3 construct: brains were processed to yield synaptosomes as previously described; from tissue; host or cells: rat whole brain minus caudate and cerebellum, synaptosomes
Format: biochemical.

“Also recorded” adds a separate entry of the source. Bridge positions count the residues as written; N and C are the ends. Peptide text beside a SMILES is read from it.

T3 sequence (Q63380 1-617): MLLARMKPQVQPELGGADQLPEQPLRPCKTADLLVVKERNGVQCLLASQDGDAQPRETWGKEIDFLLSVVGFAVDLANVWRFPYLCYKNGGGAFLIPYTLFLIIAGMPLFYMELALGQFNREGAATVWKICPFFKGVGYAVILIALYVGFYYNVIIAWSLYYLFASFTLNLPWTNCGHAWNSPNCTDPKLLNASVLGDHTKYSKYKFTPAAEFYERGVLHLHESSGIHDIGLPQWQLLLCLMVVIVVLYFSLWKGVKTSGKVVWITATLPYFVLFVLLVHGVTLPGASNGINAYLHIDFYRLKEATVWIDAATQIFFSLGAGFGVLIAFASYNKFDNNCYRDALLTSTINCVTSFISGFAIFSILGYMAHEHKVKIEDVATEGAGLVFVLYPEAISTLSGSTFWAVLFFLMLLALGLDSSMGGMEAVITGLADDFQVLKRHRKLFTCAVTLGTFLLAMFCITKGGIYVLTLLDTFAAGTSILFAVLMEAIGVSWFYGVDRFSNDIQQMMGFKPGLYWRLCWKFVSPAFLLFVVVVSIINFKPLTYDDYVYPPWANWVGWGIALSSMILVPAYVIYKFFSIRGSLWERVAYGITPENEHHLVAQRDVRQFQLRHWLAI
T2 sequence (P23977 whole entry): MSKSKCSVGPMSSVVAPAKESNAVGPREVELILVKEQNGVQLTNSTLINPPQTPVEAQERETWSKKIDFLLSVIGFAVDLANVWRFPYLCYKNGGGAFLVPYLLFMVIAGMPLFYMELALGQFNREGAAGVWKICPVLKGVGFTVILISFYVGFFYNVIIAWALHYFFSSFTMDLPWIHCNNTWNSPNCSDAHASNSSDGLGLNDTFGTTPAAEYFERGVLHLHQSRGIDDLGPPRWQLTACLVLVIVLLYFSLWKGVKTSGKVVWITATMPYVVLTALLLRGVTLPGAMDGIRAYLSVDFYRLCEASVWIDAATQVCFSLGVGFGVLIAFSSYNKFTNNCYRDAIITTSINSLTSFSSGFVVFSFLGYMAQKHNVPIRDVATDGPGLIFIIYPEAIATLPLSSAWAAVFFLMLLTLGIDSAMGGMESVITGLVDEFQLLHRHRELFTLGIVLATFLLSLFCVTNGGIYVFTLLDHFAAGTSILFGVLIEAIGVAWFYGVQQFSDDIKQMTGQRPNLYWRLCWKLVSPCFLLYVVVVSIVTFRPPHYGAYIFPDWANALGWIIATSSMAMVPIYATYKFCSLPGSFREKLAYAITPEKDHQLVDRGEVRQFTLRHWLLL
T1 sequence (P31652 whole entry): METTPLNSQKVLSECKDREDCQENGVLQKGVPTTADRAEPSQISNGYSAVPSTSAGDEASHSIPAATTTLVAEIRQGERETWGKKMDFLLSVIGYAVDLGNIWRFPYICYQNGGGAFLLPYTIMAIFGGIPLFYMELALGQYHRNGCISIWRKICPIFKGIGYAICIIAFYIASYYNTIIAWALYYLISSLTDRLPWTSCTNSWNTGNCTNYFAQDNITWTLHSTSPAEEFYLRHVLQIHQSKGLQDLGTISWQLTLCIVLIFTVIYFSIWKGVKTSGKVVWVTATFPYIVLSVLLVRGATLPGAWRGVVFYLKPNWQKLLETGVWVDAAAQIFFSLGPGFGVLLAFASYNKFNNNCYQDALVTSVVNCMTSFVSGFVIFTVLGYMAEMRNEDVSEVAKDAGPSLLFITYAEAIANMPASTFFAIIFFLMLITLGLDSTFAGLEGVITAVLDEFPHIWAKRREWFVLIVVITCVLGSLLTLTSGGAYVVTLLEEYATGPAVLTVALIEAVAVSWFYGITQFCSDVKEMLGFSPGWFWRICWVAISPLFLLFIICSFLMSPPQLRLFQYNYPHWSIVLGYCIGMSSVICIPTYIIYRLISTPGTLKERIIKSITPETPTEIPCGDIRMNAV

Regarding `CSCC[C@@H]1NC(=O)[C@H](CCCNC(=N)N)NC(=O)[C@H](Cc2ccc(O)cc2)NC(=O)CNC(=O)[C@@H]2CSSC[C@@H](C(N)=O)NC(=O)[C@@H]3CCCN3C(=O)[C@H](C(C)C)NC(=O)[C@H](CSSC[C@H](NC(=O)[C@@H](NC(=O)[C@@H](N)CO)[C@@H](C)O)C(=O)N2)NC1=O` [PnID A] (H-STCCGYRMCVPC-NH2; disulfide 3-9, 4-12), the IC50 in test [1], in test [2] and in test [3] was greater than 100 µM each time. For the same molecule, the “activity at NET relative to ribbon isomer (in words)” value in test [3] is recorded as “more than ten times less activity; also recorded: much less active in inhibiting the rat NET”.
`CSCC[C@@H]1NC(=O)[C@H](CCCNC(=N)N)NC(=O)[C@H](Cc2ccc(O)cc2)NC(=O)CNC(=O)[C@@H]2CSSC[C@H](NC1=O)C(=O)N[C@@H](C(C)C)C(=O)N1CCC[C@H]1C(=O)N[C@H](C(N)=O)CSSC[C@H](NC(=O)[C@@H](NC(=O)[C@@H](N)CO)[C@@H](C)O)C(=O)N2` [PnID B] (H-STCCGYRMCVPC-NH2; disulfide 3-12, 4-9) registered an IC50 in test [3] of 10 µM. In other words, the double-digit micromolar range.

For orientation: IC50 means the midpoint of a concentration-inhibition curve.

(Values after article PMC9964023 (Marine Drugs, 2023).)
